Assay results taken from ChEMBL document CHEMBL1123480, “Pyrazole derivatives. 5. Synthesis and antineoplastic activity of 3-(2-chloroethyl)-3,4-dihydro-4-oxopyrazolo[5,1-d]-1,2,3, 5-tetrazine-8-carboxamide and related compounds” (J Med Chem, 1986).
Activity calls are given as the source filed them.

Legend:
L1210 = assay: Antineoplastic activity against L1210 cell line; IA=Inactive; assay type: functional, cell-based; details: Mus musculus
Mus musculus = species: Mus musculus; assay: Antineoplastic activity against mammary adenocarcinoma M16c cell; IA=Inactive; assay type: functional
P388 = assay: Antineoplastic activity against NCI P388 cell; IA=Inactive; assay type: functional, cell-based; details: Mus musculus

Measured: Activity

Cn1nnc2c(C(N)=O)cnn2c1=O
inactive: all assays above
